From ChEMBL document CHEMBL1201862, “PubChem BioAssay data set” (2004)
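Step 1: Grow cells in 96-well plates. Step 2: Expose to compound for 48 hours at 5 concentrations. Step 3: Interpolate endpoints linearly; if unreached, use highest concentration. The concentration for 50% growth inhibition is given as GI50.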 Activity calls are given as the source filed them. Cut-off read from the data, not from the text of the source: active = GI50 up to about 1.1 µM and inactive = higher.

Assays:
Assay in all cases: inhibition of tumour cell growth, NCI panel, 48 h
[1] = tested on: 786-0
[2] = tested on: A498
[3] = tested on: A549
[4] = tested on: ACHN
[5] = tested on: BT-549
[6] = tested on: CAKI-1
[7] = tested on: CCRF-CEM
[8] = tested on: COLO 205
[9] = tested on: DU-145
[10] = tested on: HCC 2998
[11] = tested on: HCT-116
[12] = tested on: HCT-15
[13] = tested on: HL-60
[14] = tested on: HOP-62
[15] = tested on: HT-29
[16] = tested on: Hs-578T
[17] = tested on: IGROV-1
[18] = tested on: K562
[19] = tested on: KM12
[20] = tested on: LOX IMVI
[21] = tested on: M14
[22] = tested on: MCF7
[23] = tested on: MDA-MB-231
[24] = tested on: MDA-MB-435
[25] = tested on: MDA-N
[26] = tested on: MOLT-4
[27] = tested on: Malme-3M
[28] = tested on: NCI-H226
[29] = tested on: NCI-H23
[30] = tested on: NCI-H460
[31] = tested on: NCI-H522
[32] = tested on: NCI/ADR-RES
[33] = tested on: OVCAR-3
[34] = tested on: OVCAR-5
[35] = tested on: OVCAR-8
[36] = tested on: PC-3
[37] = tested on: RPMI-8226
[38] = tested on: RXF 393
[39] = tested on: SF-268
[40] = tested on: SF-295
[41] = tested on: SF-539
[42] = tested on: SK-MEL-28
[43] = tested on: SK-MEL-2
[44] = tested on: SK-MEL-5
[45] = tested on: SK-OV-3
[46] = tested on: SN12C
[47] = tested on: SNB-19
[48] = tested on: SNB-75
[49] = tested on: SW-620
[50] = tested on: T47D
[51] = tested on: TK-10
[52] = tested on: U-251
[53] = tested on: UACC-257
[54] = tested on: UACC-62
[55] = tested on: UO-31
[56] = tested on: EKVX
[57] = tested on: HOP-92
[58] = tested on: OVCAR-4

SMILES: O=C1CCCCCCCCCCC1CN1CCCC1 (stereo unspecified)
- GI50 [1]: 20.4 µM (inactive)
- GI50 [2]: 19.4 µM (inactive)
- GI50 [3]: 43.6 µM (inactive)
- GI50 [4]: 54.8 µM (inactive)
- GI50 [5]: 31.4 µM (inactive)
- GI50 [6]: 43.1 µM (inactive)
- GI50 [7]: 27.4 µM (inactive)
- GI50 [8]: 20.1 µM (inactive)
- GI50 [9]: 29.9 µM (inactive)
- GI50 [10]: 20 µM (inactive)
- GI50 [11]: 33.4 µM (inactive)
- GI50 [12]: 32.8 µM
- GI50 [13]: 32 µM (inactive)
- GI50 [14]: 17.1 µM (inactive)
- GI50 [15]: 17.9 µM (inactive)
- GI50 [16]: 17.9 µM (inactive)
- GI50 [17]: 46 µM (inactive)
- GI50 [18]: 53.8 µM (inactive)
- GI50 [19]: 25.6 µM (inactive)
- GI50 [20]: 19.4 µM (inactive)
- GI50 [21]: 20.1 µM (inactive)
- GI50 [22]: 20.5 µM (inactive)
- GI50 [23]: 47.9 µM (inactive)
- GI50 [24]: 36.1 µM (inactive)
- GI50 [25]: 33 µM (inactive)
- GI50 [26]: 39.4 µM (inactive)
- GI50 [27]: 31.6 µM (inactive)
- GI50 [28]: 15.4 µM (inactive)
- GI50 [29]: 36.1 µM (inactive)
- GI50 [30]: 26.9 µM (inactive)
- GI50 [31]: 39.3 µM (inactive)
- GI50 [32]: 40 µM (inactive)
- GI50 [33]: 67.5 µM (inactive)
- GI50 [34]: 22.3 µM (inactive)
- GI50 [35]: 45.4 µM (inactive)
- GI50 [36]: 30.8 µM (inactive)
- GI50 [37]: > 100 µM (inactive)
- GI50 [38]: 15.1 µM (inactive)
- GI50 [39]: 50 µM (inactive)
- GI50 [40]: 29.9 µM (inactive)
- GI50 [41]: 22.1 µM (inactive)
- GI50 [42]: 22.1 µM (inactive)
- GI50 [43]: 17.9 µM (inactive)
- GI50 [44]: 17.6 µM (inactive)
- GI50 [45]: 50.9 µM (inactive)
- GI50 [46]: 41.1 µM (inactive)
- GI50 [47]: > 100 µM (inactive)
- GI50 [48]: 32.9 µM (inactive)
- GI50 [49]: 39.3 µM (inactive)
- GI50 [50]: 46.1 µM (inactive)
- GI50 [51]: 32.3 µM (inactive)
- GI50 [52]: 26.7 µM (inactive)
- GI50 [53]: 20 µM (inactive)
- GI50 [54]: 17.1 µM (inactive)
- GI50 [55]: 35.1 µM (inactive)

SMILES: Cc1cc(C)nc(SCCc2cccc[n+]2C)n1
- GI50 [1]: > 100 µM (inactive)
- GI50 [2]: 60.7 µM (inactive)
- GI50 [3]: 34.4 µM (inactive)
- GI50 [4]: > 100 µM (inactive)
- GI50 [5]: > 100 µM (inactive)
- GI50 [6]: > 100 µM (inactive)
- GI50 [7]: > 100 µM (inactive)
- GI50 [8]: > 100 µM (inactive)
- GI50 [9]: > 100 µM (inactive)
- GI50 [56]: 24.9 µM (inactive)
- GI50 [10]: > 100 µM (inactive)
- GI50 [11]: > 100 µM (inactive)
- GI50 [12]: > 100 µM
- GI50 [13]: > 100 µM (inactive)
- GI50 [14]: > 100 µM (inactive)
- GI50 [57]: > 100 µM (inactive)
- GI50 [15]: > 100 µM (inactive)
- GI50 [16]: > 100 µM (inactive)
- GI50 [17]: > 100 µM (inactive)
- GI50 [18]: > 100 µM (inactive)
- GI50 [19]: > 100 µM (inactive)
- GI50 [20]: > 100 µM (inactive)
- GI50 [21]: > 100 µM (inactive)
- GI50 [22]: > 100 µM (inactive)
- GI50 [23]: > 100 µM (inactive)
- GI50 [24]: > 100 µM (inactive)
- GI50 [25]: > 100 µM (inactive)
- GI50 [26]: > 100 µM (inactive)
- GI50 [27]: > 100 µM (inactive)
- GI50 [28]: > 100 µM (inactive)
- GI50 [29]: > 100 µM (inactive)
- GI50 [30]: > 100 µM (inactive)
- GI50 [31]: > 100 µM (inactive)
- GI50 [32]: > 100 µM (inactive)
- GI50 [33]: > 100 µM (inactive)
- GI50 [58]: > 100 µM (inactive)
- GI50 [34]: 36.1 µM (inactive)
- GI50 [35]: > 100 µM (inactive)
- GI50 [36]: > 100 µM (inactive)
- GI50 [37]: > 100 µM (inactive)
- GI50 [38]: > 100 µM (inactive)
- GI50 [39]: > 100 µM (inactive)
- GI50 [40]: > 100 µM (inactive)
- GI50 [42]: > 100 µM (inactive)
- GI50 [44]: > 100 µM (inactive)
- GI50 [45]: > 100 µM (inactive)
- GI50 [46]: > 100 µM (inactive)
- GI50 [47]: > 100 µM (inactive)
- GI50 [48]: > 100 µM (inactive)
- GI50 [49]: > 100 µM (inactive)
- GI50 [50]: > 100 µM (inactive)
- GI50 [51]: > 100 µM (inactive)
- GI50 [52]: > 100 µM (inactive)
- GI50 [53]: > 100 µM (inactive)
- GI50 [54]: > 100 µM (inactive)
- GI50 [55]: > 100 µM (inactive)
